Experimental data taken from patent US9850283B2, “Macrocyclic inhibitors of the PD-1/PD-L1 and CD80(B7-1)/PD-L1 protein/protein interactions” (BRISTOL-MYERS SQUIBB COMPANY, priority 2013, dated 2017).
Positions of bridges follow the written chain, without caps; N, C: chain ends. Non-standard residues stand in square brackets, D forms with d. Residues, ends and D or L forms follow the SMILES beside them. ξ: configuration not given here. Bta = N[C@@H](Cc1csc2ccccc12)C(=O)O; Hyp = O=C(O)[C@@H]1C[C@@H](O)CN1; NMeNle = CCCC[C@H](NC)C(=O)O; NMeM = CN[C@@H](CCSC)C(=O)O; NMeA = CN[C@@H](C)C(=O)O; Dap = NC[C@H](N)C(=O)O; ξC = NC(CS)C(=O)O

Experiments:
[1] = biological target: T1, LK35.2-hPD-L1 cells / PE-labeled PD-1-Ig (Homo sapiens, UniProt Q9NZQ7); assay: LK35.2-hPD-L1 cell binding high-content screening assay; assay type: cell-based; conditions: cell binding assay, cell line not given; cluster symbol; read-out: CBA IC50 cluster
T1 construct: expressed in transfected cells; host or cells: LK35.2 mouse B cell line
T1 sequence (Q9NZQ7 19-290): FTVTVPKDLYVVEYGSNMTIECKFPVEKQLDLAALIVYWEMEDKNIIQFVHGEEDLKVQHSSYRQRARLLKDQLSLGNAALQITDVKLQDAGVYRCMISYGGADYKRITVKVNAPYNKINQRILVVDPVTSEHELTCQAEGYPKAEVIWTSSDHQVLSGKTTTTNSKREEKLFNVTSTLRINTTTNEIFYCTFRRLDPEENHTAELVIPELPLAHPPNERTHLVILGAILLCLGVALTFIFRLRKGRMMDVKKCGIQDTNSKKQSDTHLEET
How it was run: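 Readout: high-content imaging of PE-PD-1-Ig bound to LK35.2-hPD-L1 cells. Cells plated overnight (RPMI/10% FCS); compound + 1 nM PE-PD-1-Ig, 1 h, 37 °C; 3× dPBS wash before imaging.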

[2] = biological target: T2, Human PD-L1/PD-1 (Homo sapiens, UniProt Q9NZQ7); assay: HTRF PD-1-Ig/PD-L1-His binding assay (human PD-L1); conditions: cluster symbol; read-out: HTRF IC50 cluster
T2 construct: made in house; host or cells: HEK293T
T2 sequence (Q9NZQ7 with tags, fused parts or gaps): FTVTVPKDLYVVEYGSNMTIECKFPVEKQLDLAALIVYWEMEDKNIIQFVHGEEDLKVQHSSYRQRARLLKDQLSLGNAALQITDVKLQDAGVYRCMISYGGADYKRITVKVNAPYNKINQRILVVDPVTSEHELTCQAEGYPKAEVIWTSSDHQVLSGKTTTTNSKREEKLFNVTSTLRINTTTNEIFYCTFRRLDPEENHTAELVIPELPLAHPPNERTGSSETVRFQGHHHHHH
How it was run: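 Interaction of Fc-tagged soluble PD-1 with His-tagged soluble PD-L1 is monitored by time-resolved FRET. Donor is europium cryptate anti-Ig (1 nM final) and acceptor is APC anti-His (20 nM final). Assay buffer is dPBS with 0.1% BSA and 0.05% Tween-20.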

Row | Structure (SMILES) | IC50 [1] | IC50 [2]
1 | CCCC[C@H]1C(=O)N[C@@H](CCCNC(=N)N)C(=O)NC(C(=O)NCC(N)=O)CSCC(=O)N[C@@H](Cc2ccc(O)cc2)C(=O)N(C)[C@@H](C)C(=O)N[C@@H](CC(N)=O)C(=O)N2CCC[C@H]2C(=O)N[C@@H](CN)C(=O)N[C@@H](CC(C)C)C(=O)N2CCC[C@H]2C(=O)N[C@@H](Cc2c[nH]c3ccccc23)C(=O)N[C@@H](CO)C(=O)N[C@@H](Cc2csc3ccccc23)C(=O)N(C)[C@@H](CCSC)C(=O)N1C (stereo partly drawn) [Example 9090] ({CH2CO}-Y[NMeA]NP[Dap]LPWS[Bta][NMeM][NMeNle]R[ξC]G-NH2; thioether N-14) | 0.158 to 4.71 nM | 0.385 to 6.74 nM
2 | CCCC[C@H]1C(=O)N[C@@H](CCCNC(=N)N)C(=O)NC(C(=O)NCC(N)=O)CSCC(=O)N[C@@H](Cc2ccc(O)cc2)C(=O)N(C)[C@@H](C)C(=O)N[C@@H](CC(N)=O)C(=O)N2CCC[C@H]2C(=O)N[C@@H](CN)C(=O)N[C@@H](CC(C)C)C(=O)N2C[C@H](O)C[C@H]2C(=O)N[C@@H](Cc2c[nH]c3ccccc23)C(=O)N[C@@H](CO)C(=O)N[C@@H](Cc2csc3ccccc23)C(=O)N(C)[C@@H](CCSC)C(=O)N1C (stereo partly drawn) [Example 9092] ({CH2CO}-Y[NMeA]NP[Dap]L[Hyp]WS[Bta][NMeM][NMeNle]R[ξC]G-NH2; thioether N-14) | 0.158 to 4.71 nM | 6.76 to 30.3 nM
3 | CCCC[C@H]1C(=O)N[C@@H](C)C(=O)NC(C(=O)NCC(N)=O)CSCC(=O)N[C@@H](Cc2ccc(O)cc2)C(=O)N(C)[C@@H](C)C(=O)N[C@@H](CC(N)=O)C(=O)N2CCC[C@H]2C(=O)N[C@@H](CN)C(=O)N[C@@H](CC(C)C)C(=O)N2CCC[C@H]2C(=O)N[C@@H](Cc2c[nH]c3ccccc23)C(=O)N[C@@H](CO)C(=O)N[C@@H](Cc2c[nH]c3ccccc23)C(=O)N(C)[C@@H](CCSC)C(=O)N1C (stereo partly drawn) [Example 9093] ({CH2CO}-Y[NMeA]NP[Dap]LPWSW[NMeM][NMeNle]A[ξC]G-NH2; thioether N-14) | 4.78 to 72.9 nM | 6.76 to 30.3 nM
4 | CCCC[C@H]1C(=O)N[C@@H](C)C(=O)NC(C(=O)NCC(N)=O)CSCC(=O)N[C@@H](Cc2ccc(O)cc2)C(=O)N(C)[C@@H](C)C(=O)N[C@@H](CC(N)=O)C(=O)N2CCC[C@H]2C(=O)N[C@@H](CN)C(=O)N[C@@H](CC(C)C)C(=O)N2CCC[C@H]2C(=O)N[C@@H](Cc2c[nH]c3ccccc23)C(=O)N[C@@H](CO)C(=O)N[C@@H](Cc2csc3ccccc23)C(=O)N(C)[C@@H](CCSC)C(=O)N1C (stereo partly drawn) [Example 9094] ({CH2CO}-Y[NMeA]NP[Dap]LPWS[Bta][NMeM][NMeNle]A[ξC]G-NH2; thioether N-14) | 4.78 to 72.9 nM | 0.385 to 6.74 nM
5 | CCCC[C@H]1C(=O)N[C@@H](C)C(=O)NC(C(=O)NCC(N)=O)CSCC(=O)N[C@@H](Cc2ccc(O)cc2)C(=O)N(C)[C@@H](C)C(=O)N[C@@H](CC(N)=O)C(=O)N2CCC[C@H]2C(=O)N[C@@H](CN)C(=O)N[C@@H](CC(C)C)C(=O)N2C[C@H](O)C[C@H]2C(=O)N[C@@H](Cc2c[nH]c3ccccc23)C(=O)N[C@@H](CO)C(=O)N[C@@H](Cc2c[nH]c3ccccc23)C(=O)N(C)[C@@H](CCSC)C(=O)N1C (stereo partly drawn) [Example 9095] | 4.78 to 72.9 nM | 0.385 to 6.74 nM
6 | CCCC[C@H]1C(=O)N[C@@H](C)C(=O)NC(C(=O)NCC(N)=O)CSCC(=O)N[C@@H](Cc2ccc(O)cc2)C(=O)N(C)[C@@H](C)C(=O)N[C@@H](CC(N)=O)C(=O)N2CCC[C@H]2C(=O)N[C@@H](CN)C(=O)N[C@@H](CC(C)C)C(=O)N2C[C@H](O)C[C@H]2C(=O)N[C@@H](Cc2c[nH]c3ccccc23)C(=O)N[C@@H](CO)C(=O)N[C@@H](Cc2csc3ccccc23)C(=O)N(C)[C@@H](CCSC)C(=O)N1C (stereo partly drawn) [Example 9096] ({CH2CO}-Y[NMeA]NP[Dap]L[Hyp]WS[Bta][NMeM][NMeNle]A[ξC]G-NH2; thioether N-14) | 0.158 to 4.71 nM | 0.385 to 6.74 nM
7 | CCCC[C@H]1C(=O)N[C@@H](CCCNC(=N)N)C(=O)NC(C(=O)NCC(N)=O)CSCC(=O)N[C@@H](Cc2ccc(O)cc2)C(=O)N(C)[C@@H](C)C(=O)N[C@@H](CC(N)=O)C(=O)N2CCC[C@H]2C(=O)N[C@@H](CO)C(=O)N[C@@H](CC(C)C)C(=O)N2C[C@H](O)C[C@H]2C(=O)N[C@@H](Cc2c[nH]c3ccccc23)C(=O)N[C@@H](CO)C(=O)N[C@@H](Cc2csc3ccccc23)C(=O)N(C)[C@@H](CCSC)C(=O)N1C (stereo partly drawn) [Example 9099] ({CH2CO}-Y[NMeA]NPSL[Hyp]WS[Bta][NMeM][NMeNle]R[ξC]G-NH2; thioether N-14) | 0.158 to 4.71 nM | 0.385 to 6.74 nM
8 | CCCC[C@H]1C(=O)N(C)[C@@H](C)C(=O)N[C@@H](CCCNC(=N)N)C(=O)NC(C(=O)NCC(N)=O)CSCC(=O)N[C@@H](Cc2ccc(O)cc2)C(=O)N(C)[C@@H](C)C(=O)N[C@@H](CC(N)=O)C(=O)N2CCC[C@H]2C(=O)N[C@@H](CO)C(=O)N[C@@H](CC(C)C)C(=O)N2CCC[C@H]2C(=O)N[C@@H](Cc2c[nH]c3ccccc23)C(=O)N[C@@H](CO)C(=O)N[C@@H](Cc2csc3ccccc23)C(=O)N1C (stereo partly drawn) [Example 9111] ({CH2CO}-Y[NMeA]NPSLPWS[Bta][NMeNle][NMeA]R[ξC]G-NH2; thioether N-14) | 4.78 to 72.9 nM | 0.385 to 6.74 nM

The next lines start with the values.

Row | IC50 [1] | IC50 [2] | Structure (SMILES)
9 | 0.158 to 4.71 nM | 0.385 to 6.74 nM | CCCC[C@H]1C(=O)N[C@@H](CCCNC(=N)N)C(=O)NC(C(=O)NCC(N)=O)CSCC(=O)N[C@@H](Cc2ccc(O)cc2)C(=O)N(C)[C@@H](C)C(=O)N[C@@H](CC(N)=O)C(=O)N2CCC[C@H]2C(=O)N[C@@H](CO)C(=O)N[C@@H](CC(C)C)C(=O)N2C[C@H](O)C[C@H]2C(=O)N[C@@H](Cc2c[nH]c3ccccc23)C(=O)N[C@@H](CO)C(=O)N[C@@H](Cc2c[nH]c3ccccc23)C(=O)N(C)[C@@H](CCSC)C(=O)N1C (stereo partly drawn) [Example 9100] ({CH2CO}-Y[NMeA]NPSL[Hyp]WSW[NMeM][NMeNle]R[ξC]G-NH2; thioether N-14)
10 | 4.78 to 72.9 nM | 0.385 to 6.74 nM | CCCC[C@H]1C(=O)N(C)[C@@H](CCSC)C(=O)N[C@@H](CCCNC(=N)N)C(=O)NC(C(=O)NCC(N)=O)CSCC(=O)N[C@@H](Cc2ccc(O)cc2)C(=O)N(C)[C@@H](C)C(=O)N[C@@H](CC(N)=O)C(=O)N2CCC[C@H]2C(=O)N[C@@H](Cc2cnc[nH]2)C(=O)N[C@@H](CO)C(=O)N2CCC[C@H]2C(=O)N[C@@H](Cc2c[nH]c3ccccc23)C(=O)N[C@@H](CO)C(=O)N[C@@H](Cc2c[nH]c3ccccc23)C(=O)N1C (stereo partly drawn) [Example 9105] ({CH2CO}-Y[NMeA]NPHSPWSW[NMeNle][NMeM]R[ξC]G-NH2; thioether N-14)
11 | 4.78 to 72.9 nM | 0.385 to 6.74 nM | CCCC[C@H]1C(=O)N(C)[C@@H](CCSC)C(=O)N[C@@H](CCCNC(=N)N)C(=O)NC(C(=O)NCC(N)=O)CSCC(=O)N[C@@H](Cc2ccc(O)cc2)C(=O)N(C)[C@@H](C)C(=O)N[C@@H](CC(N)=O)C(=O)N2CCC[C@H]2C(=O)N[C@@H](Cc2cnc[nH]2)C(=O)N[C@@H](CO)C(=O)N2CCC[C@H]2C(=O)N[C@@H](Cc2c[nH]c3ccccc23)C(=O)N[C@@H](CO)C(=O)N[C@@H](Cc2csc3ccccc23)C(=O)N1C (stereo partly drawn) [Example 9106] ({CH2CO}-Y[NMeA]NPHSPWS[Bta][NMeNle][NMeM]R[ξC]G-NH2; thioether N-14)
12 | 4.78 to 72.9 nM | 6.76 to 30.3 nM | CCCC[C@H]1C(=O)N(C)[C@@H](CCSC)C(=O)N[C@@H](CCCNC(=N)N)C(=O)NC(C(=O)NCC(N)=O)CSCC(=O)N[C@@H](Cc2ccc(O)cc2)C(=O)N(C)[C@@H](C)C(=O)N[C@@H](CC(N)=O)C(=O)N2CCC[C@H]2C(=O)N[C@@H](Cc2cnc[nH]2)C(=O)N[C@@H](CO)C(=O)N2C[C@H](O)C[C@H]2C(=O)N[C@@H](Cc2c[nH]c3ccccc23)C(=O)N[C@@H](CO)C(=O)N[C@@H](Cc2c[nH]c3ccccc23)C(=O)N1C (stereo partly drawn) [Example 9107] ({CH2CO}-Y[NMeA]NPHS[Hyp]WSW[NMeNle][NMeM]R[ξC]G-NH2; thioether N-14)
13 | 0.158 to 4.71 nM | 0.385 to 6.74 nM | CCCC[C@H]1C(=O)N(C)[C@@H](CCSC)C(=O)N[C@@H](CCCNC(=N)N)C(=O)NC(C(=O)NCC(N)=O)CSCC(=O)N[C@@H](Cc2ccc(O)cc2)C(=O)N(C)[C@@H](C)C(=O)N[C@@H](CC(N)=O)C(=O)N2CCC[C@H]2C(=O)N[C@@H](Cc2cnc[nH]2)C(=O)N[C@@H](CO)C(=O)N2C[C@H](O)C[C@H]2C(=O)N[C@@H](Cc2c[nH]c3ccccc23)C(=O)N[C@@H](CO)C(=O)N[C@@H](Cc2csc3ccccc23)C(=O)N1C (stereo partly drawn) [Example 9108] ({CH2CO}-Y[NMeA]NPHS[Hyp]WS[Bta][NMeNle][NMeM]R[ξC]G-NH2; thioether N-14)
14 | 4.78 to 72.9 nM | 6.76 to 30.3 nM | CCCC[C@H]1C(=O)N[C@@H](CCCNC(=N)N)C(=O)NC(C(=O)NCC(N)=O)CSCC(=O)N[C@@H](Cc2ccc(O)cc2)C(=O)N(C)[C@@H](C)C(=O)N[C@@H](CC(N)=O)C(=O)N2CCC[C@H]2C(=O)N[C@@H](Cc2cnc[nH]2)C(=O)N[C@@H](CO)C(=O)N2CCC[C@H]2C(=O)N[C@@H](Cc2c[nH]c3ccccc23)C(=O)N[C@@H](CO)C(=O)N[C@@H](Cc2c[nH]c3ccccc23)C(=O)N(C)[C@@H](CCSC)C(=O)N1C (stereo partly drawn) [Example 9109] ({CH2CO}-Y[NMeA]NPHSPWSW[NMeM][NMeNle]R[ξC]G-NH2; thioether N-14)
15 | 4.78 to 72.9 nM | 0.385 to 6.74 nM | CCCC[C@H]1C(=O)N(C)[C@@H](C)C(=O)N[C@@H](CCCNC(=N)N)C(=O)NC(C(=O)NCC(N)=O)CSCC(=O)N[C@@H](Cc2ccc(O)cc2)C(=O)N(C)[C@@H](C)C(=O)N[C@@H](CC(N)=O)C(=O)N2CCC[C@H]2C(=O)N[C@@H](CO)C(=O)N[C@@H](CC(C)C)C(=O)N2CCC[C@H]2C(=O)N[C@@H](Cc2c[nH]c3ccccc23)C(=O)N[C@@H](CO)C(=O)N[C@@H](Cc2c[nH]c3ccccc23)C(=O)N1C (stereo partly drawn) [Example 9110] ({CH2CO}-Y[NMeA]NPSLPWSW[NMeNle][NMeA]R[ξC]G-NH2; thioether N-14)
